Measured values published in PMC3974814, “In Vitro Evaluation of the Inhibitory Potential of Pharmaceutical Excipients on Human Carboxylesterase 1A and 2” (PLoS ONE, 2014).

Columns and labels:
[1] = molecular target: T1, recombinant human CES1A1 (Homo sapiens, UniProt P23141); assay: Imidapril hydrolase activity (imidaprilat formation) of recombinant CES1A1; assay type: biochemical
T1 construct: purchased BD Gentest (Woburn, MA); host or cells: baculovirus-insect cells
T1 sequence (P23141 18-567): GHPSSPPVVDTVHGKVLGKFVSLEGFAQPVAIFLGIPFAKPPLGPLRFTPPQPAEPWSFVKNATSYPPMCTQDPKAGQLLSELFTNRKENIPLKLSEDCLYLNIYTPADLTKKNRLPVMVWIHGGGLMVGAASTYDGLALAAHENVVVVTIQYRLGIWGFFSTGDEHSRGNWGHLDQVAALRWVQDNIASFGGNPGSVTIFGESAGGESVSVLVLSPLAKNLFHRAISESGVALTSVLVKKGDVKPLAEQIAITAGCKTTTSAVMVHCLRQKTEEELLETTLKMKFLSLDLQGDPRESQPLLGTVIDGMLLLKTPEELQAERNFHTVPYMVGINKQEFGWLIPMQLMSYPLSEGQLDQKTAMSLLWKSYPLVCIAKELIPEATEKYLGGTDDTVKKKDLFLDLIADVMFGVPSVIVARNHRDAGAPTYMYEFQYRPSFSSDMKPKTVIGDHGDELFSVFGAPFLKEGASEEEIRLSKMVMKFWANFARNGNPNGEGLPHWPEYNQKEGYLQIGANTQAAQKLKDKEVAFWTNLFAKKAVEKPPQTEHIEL
Procedure: (§1) Formation of imidaprilat from imidapril was determined according to the method described previously with a slight modification. The incubation mixture (200 μl of total volume), including the microsomes, 100 mM Tris-HCl buffer (pH 7.4) and inhibitors, was preincubated at 37°C for 2 min. The reaction was initiated by the addition of imidapril (100 μM), followed by incubation of the mixture at 37°C for 15 min. The reaction was terminated by adding 200 μl of ice-cold ethyl acetate and the mixture was next dried under N2. Cetirizine was added as an internal standard. After centrifugation at 15000 g for 5 min, imidaprilat in the supernatant (10 μl) was quantified employing a liquid chromatography-tandem mass spectrometry system. Diamonsil C18 (5 μm,150×2.1 mm) was used as the analytical column, with acetonitrile-0.1% (v/v) formic acid (1∶2, v/v) as the mobile phase at a flow rate of 0.3 mL·min^−1. The calibration curve of imidaprilat in the incubation mixture was linear over a concentration range of 5–1000 ng·ml^−1 (r = 0.9991). Interday and intraday coefficients of variation of the different quality control samples were both less than 10%.
The inhibitory effects of 25 excipients on imidapril and CPT-11 hydrolase activities were investigated. These excipients were classified into 6 groups based on their chemical and physical characteristics: (1) Adhesives: HPC, PVP, CMC-Na, PEG4000, PEG6000 and sodium alginate; (2) Fillers: lactose, MCC and mannitol; (3) Co-solvents: PG, glycerin, PEG200 and PEG400; (4) Surfactants: Tween 20, Tween 80, SLS, S40, F68, Triton X-100, RH40 and EL35; (5) Absorption enhancers: lecithin and oleic acid; (6)Antioxidants: Vit.C and NaHSO3. […] All data were analysed using the mean of duplicate determinations. […]
(§2) The Ki, Km and Vmax values and inhibition types were determined by fitting the kinetic data to a competitive, noncompetitive, uncompetitive or mixed inhibition model by the Enzyme Kinetics Module using SigmaPlot 12.0 (Systat Software, Inc., San Jose, CA). […]

[2] = molecular target: T2, human liver microsomes (HLM) (Homo sapiens, UniProt P23141); assay: Imidapril hydrolase activity (imidaprilat formation) of HLM; assay type: biochemical
T2 construct: Pooled human liver microsomes (HLM) were purchased from BD Gentest; tissue BD Gentest (Woburn, MA); host or cells: pooled human liver microsomes
T2 sequence (P23141 18-567): T1 sequence (P23141 18-567)
Procedure: as §1, with “The calibration curve of imidaprilat in the incubation mixture was linear over a concentration range of 5–1000 ng·ml^−1 (r = 0.9991). Interday and intraday coefficients of variation of the different quality control samples were both less than 10%.” left out
The inhibitory effects of 25 excipients on imidapril and CPT-11 hydrolase activities were investigated. […] All data were analysed using the mean of duplicate determinations. […]
as §2

[3] = molecular target: T1, recombinant human CES1A1; assay: p-Nitrophenyl acetate hydrolase activity of recombinant CES1A1; assay type: biochemical
Procedure: (§3) p-Nitrophenyl acetate hydrolase activity was determined according to the methods described previously.
(§4) To compare the inhibitory effects, the enzyme activities at 150 μM p-nitrophenyl acetate were examined. The concentrations of the tested excipients were 500 μM, except that F68, EL35, RH40, lecithin, PVP and Sodium alginate were 100 μg/ml. […] The concentration range of inhibitors was as follows: SLS, 0.02–0.5 μg/ml, RH40, 0.1–5 μg/ml, Tween 20, 0.5–15 μg/ml, and EL 35, 3–40 μg/ml.

[4] = molecular target: T3, recombinant human CES2 (Homo sapiens, UniProt O00748); assay: p-Nitrophenyl acetate hydrolase activity of recombinant CES2; assay type: biochemical
T3 construct: purchased BD Gentest (Woburn, MA); host or cells: baculovirus-insect cells
T3 sequence (O00748 27-559): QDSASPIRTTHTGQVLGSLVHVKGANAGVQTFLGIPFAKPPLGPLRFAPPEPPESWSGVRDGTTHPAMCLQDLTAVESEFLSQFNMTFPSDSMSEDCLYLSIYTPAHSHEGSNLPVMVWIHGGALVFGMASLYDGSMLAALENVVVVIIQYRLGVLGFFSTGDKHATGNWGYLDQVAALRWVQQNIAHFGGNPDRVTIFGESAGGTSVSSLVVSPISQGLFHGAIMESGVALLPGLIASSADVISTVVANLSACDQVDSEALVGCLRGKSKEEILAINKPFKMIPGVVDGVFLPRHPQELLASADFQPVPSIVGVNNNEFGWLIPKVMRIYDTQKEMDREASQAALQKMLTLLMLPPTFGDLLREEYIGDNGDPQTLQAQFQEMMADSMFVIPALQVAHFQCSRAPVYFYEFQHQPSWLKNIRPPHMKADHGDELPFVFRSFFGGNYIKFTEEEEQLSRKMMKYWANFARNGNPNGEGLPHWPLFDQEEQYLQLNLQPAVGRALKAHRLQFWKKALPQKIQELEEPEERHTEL
Procedure: as §3, §4

[5] = molecular target: CES1A1 and CES2; set-up: method as in PMID 20810539; settings: human CES enzyme activity; isoform per drug not stated; read-out: inhibition constant (Ki); cited from earlier work
[6] = 150 μM p-nitrophenyl acetate, excipients 500 μM except F68, EL35, RH40, lecithin, PVP, sodium alginate 100 μg/ml

imidapril hydrolase activity, percentage of control ([1]; 100 μM imidapril, excipients 500 μM except F68, EL35, RH40, lecithin, PVP, sodium alginate 100 μg/ml, control 1.83 nmol/min/mg) [%] | inhibition type, imidapril hydrolase activity ([1]; recombinant CES1A1) | Ki, imidapril hydrolase activity ([1]; recombinant CES1A1, imidapril 25-200 μM, mean ± S.E.) [µg/mL] | inhibition type, imidapril hydrolase activity [2] | p-nitrophenyl acetate hydrolase activity, percentage of control [3, 6] [%] | IC50, p-nitrophenyl acetate hydrolase activity ([3]; 150 μM substrate) [µg/mL] | p-nitrophenyl acetate hydrolase activity, percentage of control [4, 6] | IC50, p-nitrophenyl acetate hydrolase activity ([4]; 150 μM substrate) [µg/mL] | Compound | Ki [5] [nM]
2.9 | competitive-type | 0.04 ± 0.01 | competitive-type | 3.6 | 0.20 | 30–60% | 0.30 | CCCCCCCCCCCCOS(=O)(=O)[O-].[Na+] [SLS, sodium lauryl sulphate] | 
 |  |  |  |  |  |  |  | CCC(C)(C)C(=O)O[C@H]1C[C@@H](C)C=C2C=C[C@H](C)[C@H](CC[C@@H]3C[C@@H](O)CC(=O)O3)[C@H]21 [simvastatin] | 110
 |  |  |  |  |  |  |  | Cc1c(C)c2c(c(C)c1O)CCC(C)(COc1ccc(CC3SC(=O)NC3=O)cc1)O2 (stereo not shown) [troglitazone] | 620
